The assay is described as follows: odour absorption test with respect to natural sweat (sniff test on flasks). Also noted: species or system human. The method, then: An odour absorption test was carried out with respect to natural sweat.
The axillary sweat from a number of people was thus removed in a sauna and combined to produce a sweat sample. In order to obtain the characteristic nauseating smell of sweat, before introducing the active substance, this sweat sample was incubated for 14 hours at a temperature of 37° C. 1 ml of the incubated sweat sample was introduced into each flask of active substance to be tested and into a control flask (without active substance). The active substance: 5.5 mg of Zn ion in the form of zinc pidolate, zinc chloride, zinc gluconate, zinc lactate, zinc phenolsulphonate and zinc sulphate, was then introduced respectively into each of the flasks of active substance to be tested.
The flasks were then incubated for a second time for 24 hours at a temperature of 37° C. and then for a third time for 3 days at room temperature.
Eight judges then smelled (“sniff test”) each of these flasks and graded the intensity of the smell on a scale from 0 to 4.

Regarding `Oc1cc(Cl)ccc1Oc1ccc(Cl)cc1Cl` [triclosan, 5-chloro-2-(2,4-dichlorophenoxy)phenol], the “absorption effect on the smell of sweat” value (sample containing a bactericide, check that the test is truly an odour absorption test) was “no absorption effect”.

In the case of “zinc pyrrolidonecarboxylate [zinc pidolate]”, the “intensity of the smell, grade on a scale from 0 to 4 (0=no smell, 4=strong smell)” value (5.5 mg of Zn ion in 1 ml incubated sweat, 24 hours at 37° C. then 3 days at room temperature, eight judges, control flask graded 4) is on record as “best results”.

(Values after patent US6632421B2, “Deodorant composition comprising a water-soluble zinc salt as odor-absorbing agent” (L'Oreal, priority 1996, dated 2003).)
